Values of other authors in patent US20190021382A1, “LONG-LASTING SWEETENER FORMULATIONS” (WM. WRIGLEY JR. COMPANY, priority 2016, published 2019).

Settings: relative to sugar

C=C1C[C@@]23CC[C@H]4[C@@](C)(CCC[C@@]4(C)C(=O)O[C@@H]4O[C@H](CO)[C@@H](O)[C@H](O)[C@H]4O)[C@@H]2CC[C@]1(O[C@@H]1O[C@H](CO)[C@@H](O)[C@H](O[C@@H]2O[C@H](CO)[C@@H](O)[C@H](O)[C@H]2O)[C@H]1O[C@@H]1O[C@H](CO)[C@@H](O)[C@H](O)[C@H]1O)C3 [Rebaudioside A, rebaudioside A]
times sweeter than sugar: 200 times
